Molecular target: T1, NTCP (Na+ taurocholate cotransporting peptide), HepG2-hNTCP-C4 cell line (Homo sapiens, UniProt Q14973)
T1 construct: expressed in transfected cells; host or cells: HepG2-hNTCP-C4 (HepG2 cells expressing human NTCP)
T1 sequence (Q14973 1-349): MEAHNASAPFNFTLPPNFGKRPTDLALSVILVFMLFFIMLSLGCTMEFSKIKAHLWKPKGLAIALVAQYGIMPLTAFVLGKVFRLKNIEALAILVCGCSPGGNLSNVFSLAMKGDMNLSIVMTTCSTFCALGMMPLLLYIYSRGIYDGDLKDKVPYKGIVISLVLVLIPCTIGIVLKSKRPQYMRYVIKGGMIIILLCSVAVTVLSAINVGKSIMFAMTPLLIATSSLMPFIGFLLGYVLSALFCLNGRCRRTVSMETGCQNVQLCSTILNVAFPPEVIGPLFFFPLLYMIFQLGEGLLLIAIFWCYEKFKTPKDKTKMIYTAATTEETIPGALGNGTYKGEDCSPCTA
Experiment: Inhibition of binding between FITC-labelled PreS1 and NTCP expressing cell line, flow cytometry
Details: for difference in degree of competitive inhibition versus Comparative Example 2 (UDCA) / difference in degree of competitive inhibition versus the parent bile acid Comparative Example: compared to the HBV-induced group (PreS1-FITC) solely treated with PreS1; for relative fluorescence intensity in comparison with the parent bile acid Comparative Example: vs Comparative Example 2 (UDCA), 5 (DCA) or 6 (CDCA), method as Experimental Example 1-1; for ability to inhibit the binding between PreS1 and NTCP expressing cell lines (bile acid series) / relative fluorescence intensity compared to Comparative Example 1 (LCA): compound 50 µM; for difference in degree of competitive inhibition versus the parent bile acid Comparative Example: vs Comparative Example 5 or 6; for relative fluorescence intensity compared to Comparative Example 1 (LCA): 20 nM PreS1, 4° C., 2 hours, lower = more inhibited binding
Procedure: HepG2-hNTCP-C4 cell line, a cell line expressing NTCP, was seeded in a 6 well plate at a density of 2×10^5/well and incubated at 4° C. for 30 minutes when the confluency reached 80% after overnight incubation for 2 days. Thereafter, 20 nM PreS1 (Myr-GTNL […]-Lys(FITC) (SEQ ID NO: 1)) and the compounds in Example 1, Examples 38 to 56 or the compound in Comparative Example 1 were treated by diluting in culture media at 4° C. at a concentration of 50 µM respectively, and the media was suctioned after 2 hours, followed by washing 3 times with 4° C. PBS. In order to take the cells off from the plate, 500 μl of 0.5 mM EDTA PBS solution was treated, and then incubation was performed at 37° C. for 15 minutes to check whether the cells fell off through an optical microscope. After taking off the cells by pipetting, the cells were collected in a 1.5 ml tube and centrifuged (4000 rpm, 4° C., 3 min). After suctioning the supernatant, the pellet was washed 3 times with 4° C. PBS, and then green fluorescence was measured via flow cytometry. In this case, taurocholic acid (TCA), a compound known as a substrate of NTCP to reduce the entry of HBV or HDV, was used as a positive control group.
In the graph at the top of FIG. 1, black (1) and red (2) indicate a negative control group with no treatment and an HBV-induced group (HBV preS1) solely treated with PreS1, respectively. Blue (HBV preS1+HBV entry inhibitor) (3) is the fluorescence value for each of Examples or Comparative Examples, evaluated that the closer to the negative control group, the more inhibited the binding between PreS1 and the NTCP cell line.
The experimental method was the same as in the Experimental Example 1-1, and 20 nM PreS1 and each compound were treated at 4 concentrations (0.2 μM, 2 μM, 10 μM, 50 μM).
With an expectation that there is a structure-activity relationship among compounds composed of bile acid and amino acids, for each of bile acids in Comparative Example 1 (lithocholic acid, LCA), Comparative Example 2 (ursodeoxycholic acid, UDCA), Comparative Example 3 (cholic acid, CA), Comparative Example 4 (hyodeoxycholic acid, HDCA), Comparative Example 5 (deoxycholic acid, DCA), and Comparative Example 6 (chenodeoxycholic acid, CDCA), an evaluation experiment was conducted on an ability to inhibit the binding between PreS1 and NTCP expressing cell lines, and also for Examples 1 (LCA-Ile) and Example 44 (LCA-Val) as well as the compounds in Example 2 (UDCA-Ile), Example 3 (UDCA-Val), Example 6 (CA-Ile), Example 7 (CA-Val), Example 8 (HDCA-Ile), Example 9 (HDCA-Val), Example 10 (DCA-Ile), Example 11 (DCA-Val), Example 14 (CDCA-Ile), and Example 15 (CDCA-Val) in which bile acid parts (lithocholic acid) of Example 1 (LCA-Ile) and Example 44 (LCA-Val) were substituted with other types of bile acids in Comparative Examples 2 to 6, an evaluation experiment was conducted on an ability to inhibit the binding between PreS1 and NTCP expressing cell lines. The experimental method was the same as in the Experimental Example 1-1, and 18 compounds in the Comparative Examples 1 to 6, Examples 1 to 3, Examples 6 to 11, Examples 14 to 15, and Example 44 were treated at a concentration of 50 µM along with 20 nM PreS1.
In FIG. 9, an evaluation experiment was conducted to check a degree of inhibiting the binding between PreS1 and NTCP expressing cell lines for compounds in Examples 4 to 5, Examples 12 to 13, Examples 16 to 17, and Comparative Examples 2 (ursodeoxycholic acid, UDCA), Comparative Examples 5 (deoxycholic acid, DCA), and Comparative Examples 6 (chenodeoxycholic acid, CDCA) according to the present disclosure. The experimental method was the same as the Experimental Example 1-1.
In the Experimental Examples 1-4, it was determined whether there is additionally concentration dependence for Example 4 (UDCA-Trp), a compound with good inhibitory ability. […]

## C[C@H](CCC(=O)N[C@@H](Cc1c[nH]c2ccccc12)C(=O)O)[C@H]1CC[C@H]2[C@@H]3[C@@H](O)C[C@@H]4C[C@H](O)CC[C@]4(C)[C@H]3CC[C@]12C [Example 4, (S)-2-((R)-4-((3R,5S,7S,8R,9S,10S,13R,14S,17R)-3,7-dihydroxy-10,13-dimethyl-hexadecahydro-1H-cyclopenta[a]phenanthren-17-yl)pentanamido)-3-(1H-indol-3-yl)propanoic acid]
2 μM, 10 μM, 20 μM, 50 μM, 20 nM PreS1
  effect of inhibiting the binding between PreS1 and NTCP expressing cell lines by treatment concentration: concentration dependent
  difference in degree of competitive inhibition versus Comparative Example 2 (UDCA): about 2 times
  relative fluorescence intensity in comparison with the parent bile acid Comparative Example: low

## C[C@H](CCC(=O)N[C@@H](Cc1ccc(O)cc1)C(=O)O)[C@H]1CC[C@H]2[C@@H]3[C@@H](O)C[C@@H]4C[C@H](O)CC[C@]4(C)[C@H]3CC[C@]12C [Example 5, (S)-2-((R)-4-((3R,5S,7S,8R,9S,10S,13R,14S,17R)-3,7-dihydroxy-10,13-dimethyl-hexadecahydro-1H-cyclopenta[a]phenanthren-17-yl)pentanamido)-3-(4-hydroxyphenyl)propanoic acid]
  difference in degree of competitive inhibition versus Comparative Example 2 (UDCA): about 2 times
  relative fluorescence intensity in comparison with the parent bile acid Comparative Example: low

## CC[C@@H](C)[C@H](NC(=O)CC[C@@H](C)[C@H]1CC[C@H]2[C@@H]3C[C@H](O)[C@@H]4C[C@H](O)CC[C@]4(C)[C@H]3CC[C@]12C)C(=O)O [Example 8, (2S,3R)-2-((R)-4-((3R,5R,6S,8S,9S,10R,13R,14S,17R)-3,6-dihydroxy-10,13-dimethyl-hexadecahydro-1H-cyclopenta[a]phenanthren-17-yl)pentanamido)-3-methylpentanoic acid]
20 nM PreS1
  ability to inhibit the binding between PreS1 and NTCP expressing cell lines (bile acid series): relatively excellent

## CC(C)[C@H](NC(=O)CC[C@@H](C)[C@H]1CC[C@H]2[C@@H]3C[C@H](O)[C@@H]4C[C@H](O)CC[C@]4(C)[C@H]3CC[C@]12C)C(=O)O [Example 9, (S)-2-((R)-4-((3R,5R,6S,8S,9S,10R,13R,14S,17R)-3,6-dihydroxy-10,13-dimethyl-hexadecahydro-1H-cyclopenta[a]phenanthren-17-yl)pentanamido)-3-methylbutanoic acid]
20 nM PreS1
  ability to inhibit the binding between PreS1 and NTCP expressing cell lines (bile acid series): relatively excellent

## C[C@H](CCC(=O)N[C@@H](Cc1c[nH]c2ccccc12)C(=O)O)[C@H]1CC[C@H]2[C@@H]3CC[C@@H]4C[C@H](O)CC[C@]4(C)[C@H]3C[C@H](O)[C@]12C [Example 12, (S)-2-((R)-4-((3R,5R,8R,9S,10S,12S,13R,14S,17R)-3,12-dihydroxy-10,13-dimethyl-hexadecahydro-1H-cyclopenta[a]phenanthren-17-yl)pentanamido)-3-(1H-indol-3-yl)propanoic acid]
  difference in degree of competitive inhibition versus the parent bile acid Comparative Example: 11.6%
  relative fluorescence intensity in comparison with the parent bile acid Comparative Example: the same or lower

## C[C@H](CCC(=O)N[C@@H](Cc1ccc(O)cc1)C(=O)O)[C@H]1CC[C@H]2[C@@H]3CC[C@@H]4C[C@H](O)CC[C@]4(C)[C@H]3C[C@H](O)[C@]12C [Example 13, (S)-2-((R)-4-((3R,5R,8R,9S,10S,12S,13R,14S,17R)-3,12-dihydroxy-10,13-dimethyl-hexadecahydro-1H-cyclopenta[a]phenanthren-17-yl)pentanamido)-3-(4-hydroxyphenyl)propanoic acid]
  relative fluorescence intensity in comparison with the parent bile acid Comparative Example: the same or lower

## CC[C@@H](C)[C@H](NC(=O)CC[C@@H](C)[C@H]1CC[C@H]2[C@@H]3[C@H](O)C[C@@H]4C[C@H](O)CC[C@]4(C)[C@H]3CC[C@]12C)C(=O)O [Example 14, (2S,3R)-2-((R)-4-((3R,5S,7R,8R,9S,10S,13R,14S,17R)-3,7-dihydroxy-10,13-dimethyl-hexadecahydro-1H-cyclopenta[a]phenanthren-17-yl)pentanamido)-3-methylpentanoic acid]
20 nM PreS1
  ability to inhibit the binding between PreS1 and NTCP expressing cell lines (bile acid series): relatively excellent

## C[C@H](CCC(=O)N[C@@H](Cc1c[nH]c2ccccc12)C(=O)O)[C@H]1CC[C@H]2[C@@H]3[C@H](O)C[C@@H]4C[C@H](O)CC[C@]4(C)[C@H]3CC[C@]12C [Example 16, (S)-2-((R)-4-((3R,5S,7R,8R,9S,10S,13R,14S,17R)-3,7-dihydroxy-10,13-dimethyl-hexadecahydro-1H-cyclopenta[a]phenanthren-17-yl)pentanamido)-3-(1H-indol-3-yl)propanoic acid]
  difference in degree of competitive inhibition versus the parent bile acid Comparative Example: 17.8%
  relative fluorescence intensity in comparison with the parent bile acid Comparative Example: low

## C[C@H](CCC(=O)N[C@@H](Cc1ccc(O)cc1)C(=O)O)[C@H]1CC[C@H]2[C@@H]3[C@H](O)C[C@@H]4C[C@H](O)CC[C@]4(C)[C@H]3CC[C@]12C [Example 17, (S)-2-((R)-4-((3R,5S,7R,8R,9S,10S,13R,14S,17R)-3,7-dihydroxy-10,13-dimethyl-hexadecahydro-1H-cyclopenta[a]phenanthren-17-yl)pentanamido)-3-(4-hydroxyphenyl)propanoic acid]
  relative fluorescence intensity in comparison with the parent bile acid Comparative Example: low

## C[C@H](CCC(=O)N1CCCC1C(=O)O)[C@H]1CC[C@H]2[C@@H]3CC[C@@H]4C[C@H](O)CC[C@]4(C)[C@H]3CC[C@]12C (stereo partly drawn) [Example 38, 1-((R)-4-((3R,5R,8R,9S,10S,13R,14S,17R)-3-hydroxy-10,13-dimethyl-hexadecahydro-1H-cyclopenta[a]phenanthren-17-yl)pentanoyl)pyrrolidine-2-carboxylic acid]
  relative fluorescence intensity compared to Comparative Example 1 (LCA): low and lower

## C[C@H](O)[C@H](NC(=O)CC[C@@H](C)[C@H]1CC[C@H]2[C@@H]3CC[C@@H]4C[C@H](O)CC[C@]4(C)[C@H]3CC[C@]12C)C(=O)O [Example 39, (2S,3S)-3-hydroxy-2-((R)-4-((3R,5R,8R,9S,10S,13R,14S,17R)-3-hydroxy-10,13-dimethyl-hexadecahydro-1H-cyclopenta[a]phenanthren-17-yl)pentanamido)butanoic acid]
  relative fluorescence intensity compared to Comparative Example 1 (LCA): low and lower

— US20260234180A1, “AMINO ACID DERIVATIVE, PREPARATION METHOD THEREFOR, AND PHARMACEUTICAL COMPOSITION FOR TREATING HEPATITIS, COMPRISING SAME” (priority 2021, published 2026)
